This note sets out measurements from patent US20030186424A1, “Reagents and methods for identifying and modulating expression of genes regulated by CDK inhibitors” (priority 2001, published 2003).

The test system of one data set is CRD1 domain of p300. As to the kind of experiment: CRD1 dependent stimulation of transcription (Gal4 p300 CRD1+ luciferase reporter). Format: cell-based, human. Particulars: treatment of cells with the compound; data not shown. Here is the method: Calcium phosphate transfections of U-2 OS cells were performed substantially as disclosed in Webster & Perkins (1999, Mol. Cell. Biol. 19: 3485-3495). Briefly, transfections were performed in 6 cm dishes using 2 μg of reporter plasmid, 1.6 μg of RSV p21 or RSV ADH control plasmid and 5 ng of Gal4 expression plasmid (except where indicated in the figure legend). Cells were harvested approximately 40 hours after transfection. Lysates were prepared using passive lysis buffer (Promega) and luciferase assays were performed according to manufacturer's instructions (Promega). All experiments were performed separately, a minimum of three times before calculating means and standard errors as shown in the Figures. Relative luciferase levels were calculated by referring to the level of activity seen with the Gal4 DNA-binding domain (amino acids 1-147) not fused to a heterologous activator, except when specifically referred to.
Wild type p21 and the two mutants were cotransfected with Gal4 p300^CRD+ (192-1044) and Gal4 E1B luciferase into U-2 OS cells. Both mutants stimulated transcriptional activity to the same extent as the wild type protein (FIG. 8B), consistent with a Cyclin/CDK independent role for p21 regulation of CRD1. […]
On the technique in general: In a reporter assay the amount or activity of a reporter protein is the signal.

In the next data set the target is TBP + TFIIB complex (UniProt P20226;Q00403 P20226:1-339,Q00403:1-316). As to the kind of experiment: EMSA; no complex seen; 30 C, 4 mM MgCl2, 55 mM KCl; exact probe span not stated. The conditions noted are these: tags: gift from Stefan Roberts, University of Manchester; label: 32P. The source says:
The sequence of the TATA box and surrounding sequences was known in the art to influence binding of basal transcription factors (Lieberman et al., 1997, Mol. Cell. Biol. 17: 6624-6632). Since the Bax TATA sequence differs considerably from AdML, these constructs were used to determine whether the observed structural differences would be associated with differential binding of the core transcription factors TBP (TATA binding protein) and TFIIB. In these experiments, purified recombinant TBP and TFIIB were therefore incubated with ³²P labeled probes containing the AdML and Bax TATA boxes and analyzed by electrophoretic mobility shift assay (EMSA), performed as follows. ³²P labeled probe DNA was incubated for 1 hr at 30° C. with ˜1 ng purified recombinant TBP, ˜2 ng purified recombinant TFIIB (both proteins gifts from Dr Stefan Roberts, University of Manchester), 5 μg BSA, 250 ng poly(dG.dC) competitor and 12 μL buffer (having a formula of 10 mM Hepes pH7.9, 0.2 mM EDTA, 55 mM KCl, 4 mM MgCl₂, 5 mM ammonium sulphate, 8% v/v glycerol, 2% v/v polyethylene glycol, 5 mM β-mercaptoethanol, and 0.2 mM PMSF). Samples were then resolved using a 4.8% acrylamide gel (in 0.5×TB buffer). The gel was then dried and exposed to film.
For orientation: Mobility shift assays separate free from complexed probe on a gel.

Chain of TBP + TFIIB complex (P20226 whole entry, chain 1 of 2): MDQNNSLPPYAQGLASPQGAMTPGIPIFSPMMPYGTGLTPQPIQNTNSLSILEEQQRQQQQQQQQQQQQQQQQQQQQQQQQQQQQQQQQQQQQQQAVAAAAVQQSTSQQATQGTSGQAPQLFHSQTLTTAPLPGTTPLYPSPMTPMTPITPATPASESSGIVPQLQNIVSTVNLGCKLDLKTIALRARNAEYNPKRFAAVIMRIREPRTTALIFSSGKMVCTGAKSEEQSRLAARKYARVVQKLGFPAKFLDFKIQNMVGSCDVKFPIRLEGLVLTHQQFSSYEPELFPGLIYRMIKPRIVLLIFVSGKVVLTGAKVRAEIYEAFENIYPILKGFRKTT
Chain of TBP + TFIIB complex (Q00403 whole entry, chain 2 of 2): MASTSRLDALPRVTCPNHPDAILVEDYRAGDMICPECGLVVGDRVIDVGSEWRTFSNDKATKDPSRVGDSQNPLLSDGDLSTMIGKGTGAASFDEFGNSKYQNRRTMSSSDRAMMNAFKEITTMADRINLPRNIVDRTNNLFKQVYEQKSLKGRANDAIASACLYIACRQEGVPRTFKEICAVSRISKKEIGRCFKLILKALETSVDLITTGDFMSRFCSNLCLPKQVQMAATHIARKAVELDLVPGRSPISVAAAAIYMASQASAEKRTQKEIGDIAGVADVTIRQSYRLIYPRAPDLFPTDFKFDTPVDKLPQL

`CC[C@H](CO)Nc1nc(NCc2ccccc2)c2ncn(C(C)C)c2n1` [roscovitine]: the “CRD1 dependent stimulation of transcription” value with CRD1 domain of p300 is listed as “does not result in CRD1 dependent stimulation of transcription”.

As for `NC(Cn1ccc(=O)c(O)c1)C(=O)O` (stereo not drawn) [mimosine], the “CRD1 dependent stimulation of transcription” value with CRD1 domain of p300 is recorded as “does not result in CRD1 dependent stimulation of transcription”.

B1: Bax TATA box core promoter probe (dsDNA)
DNA 1: ACTCAGTTTTTAGTCATCTATAACGTCCTGCCTGGAAGCATGCTATTTTGGGCCTCTGAGCTT
DNA 2: AAGCTCAGAGGCCCAAAATAGCATGCTTCCAGGCAGGACGTTATAGATGACTAAAAACTGAGT
Take B1: in the data set with TBP + TFIIB complex, the binding result is listed as “no binding”.
